One test has as its system horse plasma. Put plainly: Thrombelastography of horse plasma, coagulation study (no tPA). It is filed as biochemical. The arrangement: increase in TTG vs control / decrease in MRTG vs control / decrease in TTG vs control / decrease in MRTG vs control sample / decrease in TTG vs control sample / increase in MRTG vs control sample / increase in TTG vs control sample: concentration or dose not given beside the values. The note with it: for MRTG / TMRTG / TTG / MA / R / α: PHA 10 mM, CORM-2 100 μM. As for the experimental part: Blood was collected directly into plastic tubes containing 0.105 M sodium citrate (9:1, v/v) from the jugular vein of ten clinically normal grade and American Quarter Horse mares between 400 and 600 kg. Three additional horses to be subsequently described with acute gastrointestinal disease had blood samples similarly collected. The mares were group-housed in corrals. Plasma was obtained by centrifugation of citrated whole blood at 3000×g for 15 minutes and immediately frozen at −80° C. Plasma was subsequently shipped on dry ice and stored at −80° C. until thrombelastographic analysis.
The final volume for all subsequently described plasma sample mixtures was 359.6 μl. Sample composition for this series of experiments consisted of 326 μl of plasma; 10 μl of tissue factor reagent (0.1% final concentration in dH2O; Diagnostica Stago S.A.S., Asnieres sur Seine, France); 3.6 μl of dH2O, or 3.6 μl dH2O containing the heme-binding reductant phenylhydroxylamine (PHA, 10 mM final concentration, Sigma-Aldrich, Saint Louis, Mo., USA), or 3.6 μl of dimethyl sulfoxide with CORM-2 (100 μM final concentration; Sigma-Aldrich, Saint Louis, Mo., USA); and 20 μl of 200 mM CaCl2. As previously described in human plasma (McMichael et al., 2011, Blood Coagul Fibrinolysis, 22: 424-430), this diagnostic panel is designed to determine hemostatic kinetic changes following of formation of carboxyhemefibrinogen (Fe^+2 state) after exposure to CO released from CORM-2 and to determine the effects of formation of methemefibrinogen (Fe^+3 state) after exposure to PHA. The relative change from baseline kinetics caused by exposure to CORM-2 and PHA allow determination of the balance between oxy/carboxy/methemefibrinogen concentrations in human plasma (McMichael et al., 2011, Blood Coagul Fibrinolysis, 22: 424-430).
Plasma sample mixtures were placed in a disposable cup in a computer-controlled Thrombelastograph® hemostasis system (Model 5000, Haemoscope Corp., Niles, Ill., USA), with addition of CaCl2 as the last step to initiate clotting. Data were collected at 37° C. for 15 min in the first series of experiments involving coagulation alone, whereas in the experiments involving fibrinolysis data were collected until clot lysis time was observed. Elastic modulus-based parameters previously described were determined (Nielsen et al., 2009, Blood Coagul Fibrinolysis, 20: 377-380; Nielsen et al., 2009, Blood Coagul Fibrinolysis, 20: 448-455). The nomenclature used to describe these phenomena is as follows:
Time to maximum rate of thrombus generation (TMRTG): This is the time interval (min) observed prior to maximum speed of clot growth.
Maximum rate of thrombus generation (MRTG): This is the maximum velocity of clot growth observed (dynes/cm^2/sec).
Total Thrombus Generation (TTG): This is the total area under the velocity curve during clot growth (dynes/cm^2), representing the amount of clot strength generated during clot growth.
Thrombelastographic data are presented as mean±SD or as individual animal parameter values as appropriate. The effects of addition of CORM-2 and PHA on coagulation and fibrinolytic kinetic parameters were analyzed with one way repeated measures analysis of variance, utilizing Holm-Sidak post hoc test (SigmaStat 3.1, Systat Software, Inc., San Jose, Calif., USA) as appropriate. A P value of <0.05 was considered significant.

The test system of test [1] is Patient plasma; pooled normal plasma. Put plainly: Thrombelastography of Heartmate II VAD patient plasma and pooled normal plasma. Format: biochemical, human. Particulars: for change in clot strength (TTG) compared to normal plasma: VAD patient plasma, 100 μM CORM-2 or 30 mM PHA. Here is the method: Shortly after induction of anesthesia and invasive monitoring placement, whole blood was collected from the patient's radial arterial catheter and immediately anticoagulated with sodium citrate (9 parts blood:1 part 0.105M sodium citrate). The blood was immediately centrifuged at 3000×g at room temperature, with plasma aliquoted and stored at −80° C. prior to thrombelastographic analyses subsequently described. Operation proceeded, with VAD replacement followed by discharge from the hospital three weeks later.
Patient plasma was subjected to thrombelastographic analysis for 30 min at 37° C. as previously described (Nielsen et al., 2009, Blood Coagul Fibrinolysis, 20: 377-380; Nielsen et al., 2011, Blood Coagul Fibrinolysis, 22: 657-661). Also, for qualitative/semi-quantitative comparison, four replicate samples of citrated, pooled normal plasma (George King Bio-Medical, Overland Park, Kans., USA) were subjected to identical thrombelastographic analyses. In brief, the final volume for all subsequently described plasma sample mixtures was 359.6 Sample composition consisted of 326 μl of plasma; 10 μl of tissue factor reagent (0.1% final concentration in dH2O; Diagnostica Stago S.A.S., Asnieres sur Seine, France), 3.6 μl of dH2O or dH2O containing the organic reductant phenylhydroxylamine (PHA, 30 mM final concentration, Sigma-Aldrich, Saint Louis, Mo., USA), or 3.6 μl of CORM-2 (100 μM final concentration; Sigma-Aldrich) and 20 μl of 200 mM CaCl2. The addition of CORM-2 determines if there are heme groups unbound by CO in plasma by increasing coagulation kinetics (Nielsen et al., 2011, Blood Coagul Fibrinolysis, 22: 657-661). PHA at this concentration rapidly converts heme-attached Fe^+2 to Fe^+3, the met-state, displacing CO and decreasing coagulation (Nielsen et al., 2011, Blood Coagul Fibrinolysis, 22: 657-661). […] Thrombelastographic variables previously described (Nielsen et al., 2009, Blood Coagul Fibrinolysis, 20: 377-380; Nielsen et al., 2011, Blood Coagul Fibrinolysis, 22: 657-661) were determined, and the results are depicted in FIG. 7 and FIG. 8.

Setting [2] is: horse with lethal disease, no tPA.
[3] abbreviates: horse with lethal enteritis, no tPA.
Setting [4] is: horse with mild disease, no tPA.
[5] abbreviates: horse with mild enteritis, no tPA.
Where [6] appears, read: horse with moderate disease, no tPA.
[7] abbreviates: horse with moderate enteritis, no tPA.

In the test on horse plasma (setting [2]), `[C-]#[O+].[C-]#[O+].[C-]#[O+].[C-]#[O+].[C-]#[O+].[C-]#[O+].[Cl][Ru][Cl].[Cl][Ru][Cl]` [CORM-2, tricarbonyldichlororuthenium (II) dimer] had an MRTG of 5.0 dynes/cm^2/sec, a TMRTG of 3.7 min and a TTG of 126 dynes/cm^2. Further, in the test on horse plasma (setting [3]), the “increase in MRTG vs control sample” value stood at 67% and the “increase in TTG vs control sample” value was found to be 97%. Further, in the test on horse plasma (setting [4]), the MRTG is 10.2 dynes/cm^2/sec, the TMRTG was 2.9 min and the TTG was determined as 308 dynes/cm^2. In the test with horse plasma (setting [5]), the “increase in MRTG vs control sample” value is 16% and the “increase in TTG vs control sample” value came out at 25%. In the test with horse plasma (setting [6]), the MRTG stood at 9.1 dynes/cm^2/sec, the TMRTG amounted to 2.4 min and the TTG was determined as 238 dynes/cm^2. Moreover, in the test with horse plasma (setting [7]), the “increase in MRTG vs control sample” value stood at 28% and the “increase in TTG vs control sample” value worked out at 47%. In addition, the “increase in TTG vs control” value with horse plasma (normal horses, no tPA) is recorded as 9%. In the test with horse plasma (normal horses), the MA is recorded as 40.4 ± 3.4, the MRTG is reported as 13.0 ± 2.9 dynes/cm^2/sec, the R stood at 2.0 ± 0.4 and the TMRTG is on record as 2.8 ± 0.5 min. In the test with horse plasma (normal horses), this compound came in with a TTG of 342 ± 48 dynes/cm^2 and a α of 80.2 ± 2.1. The “change in clot strength (TTG) compared to normal plasma” value in test [1] is on record as “markedly decreased response”. Also, the “change in clot strength (TTG)” value in test [1] (normal pooled plasma, 100 μM CORM-2) was “typical increase”.

Turning to `ONc1ccccc1` [PHA, phenylhydroxylamine], in the test on horse plasma (setting [2]), the MRTG was determined as 0.1 dynes/cm^2/sec, the TMRTG was 8.2 min and the TTG was found to be 2 dynes/cm^2. Also, the effect on coagulation entry in the test with horse plasma (setting [3]) is “essentially extinguished coagulation”. In the test with horse plasma (setting [4]), this compound had an MRTG of 4.8 dynes/cm^2/sec, a TMRTG of 3.9 min and a TTG of 177 dynes/cm^2. In addition, in the test with horse plasma (setting [5]), the “decrease in MRTG vs control sample” value is 45% and the “decrease in TTG vs control sample” value is reported as 28%. Besides, in the test with horse plasma (setting [6]), the MRTG is given as 3.9 dynes/cm^2/sec, the TMRTG is reported as 3.5 min and the TTG is reported as 126 dynes/cm^2. In the test on horse plasma (setting [7]), the “decrease in MRTG vs control sample” value was found to be 45% and the “decrease in TTG vs control sample” value is reported as 22%. In the test with horse plasma (normal horses, no tPA), the “decrease in MRTG vs control” value was 54% and the “decrease in TTG vs control” value is 47%. Besides, in the test with horse plasma (normal horses), the MA came out at 24.6 ± 2.7, the MRTG was 6.2 ± 1.7 dynes/cm^2/sec, the R stood at 2.4 ± 0.4 and the TMRTG stood at 3.4 ± 0.6 min. In the test with horse plasma (normal horses), this compound yielded a TTG of 166 ± 23 dynes/cm^2 and a α of 71.7 ± 3.6. For the same compound, in test [1], the “change in clot strength (TTG) compared to normal plasma” value is “greater decrease”.

These data come from patent US20140242707A1, “Compositions and Methods for Diagnosing Hypercoagulability and Hypocoagulability” (Philadelphia Health & Education Corporation d/b/a Drexel …, priority 2011, published 2014).
